Assay type in all cases: binding
For assay [1], the target named is kinases (KINOMEscan panel) (Homo sapiens, UniProt P53778).
Assay [2] deals with T1, kinases (KINOMEscan panel) (Homo sapiens, UniProt P51955).
T1 sequence (P51955 1-445): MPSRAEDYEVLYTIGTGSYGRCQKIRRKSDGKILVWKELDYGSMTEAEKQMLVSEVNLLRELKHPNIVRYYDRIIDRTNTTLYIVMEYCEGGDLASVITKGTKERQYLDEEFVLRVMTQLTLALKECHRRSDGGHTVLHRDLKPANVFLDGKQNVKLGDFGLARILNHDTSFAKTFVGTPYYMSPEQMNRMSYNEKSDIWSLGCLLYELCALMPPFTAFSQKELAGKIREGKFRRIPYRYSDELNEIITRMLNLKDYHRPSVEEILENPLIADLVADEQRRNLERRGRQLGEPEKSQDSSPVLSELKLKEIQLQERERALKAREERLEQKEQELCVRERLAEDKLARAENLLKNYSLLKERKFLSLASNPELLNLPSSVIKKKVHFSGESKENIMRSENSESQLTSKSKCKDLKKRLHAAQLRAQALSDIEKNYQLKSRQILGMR
The conditions noted are these: kinase NEK2; NEW KINOMEscan.

Assay [3] addresses kinases (KINOMEscan panel) (Homo sapiens, UniProt P16234). As to conditions: PDGFRA; NEW KINOMEscan.
Assay [4] has as its target kinases (KINOMEscan panel) (Homo sapiens, UniProt P78362). The conditions noted are these: SRPK2; NEW KINOMEscan.
Assay [5] has as its target kinases (KINOMEscan panel) (Homo sapiens, UniProt Q96Q40).
For assay [6], the target named is kinases (KINOMEscan panel) (Homo sapiens, UniProt Q96J92). The conditions noted are these: WNK4; NEW KINOMEscan.
In assay [7] the target is kinases (KINOMEscan panel) (Homo sapiens, UniProt P54756). As to conditions: kinase EPHA5; NEW KINOMEscan.
kinases (KINOMEscan panel) (Homo sapiens, UniProt P54756), sequence (P54756 25-1037): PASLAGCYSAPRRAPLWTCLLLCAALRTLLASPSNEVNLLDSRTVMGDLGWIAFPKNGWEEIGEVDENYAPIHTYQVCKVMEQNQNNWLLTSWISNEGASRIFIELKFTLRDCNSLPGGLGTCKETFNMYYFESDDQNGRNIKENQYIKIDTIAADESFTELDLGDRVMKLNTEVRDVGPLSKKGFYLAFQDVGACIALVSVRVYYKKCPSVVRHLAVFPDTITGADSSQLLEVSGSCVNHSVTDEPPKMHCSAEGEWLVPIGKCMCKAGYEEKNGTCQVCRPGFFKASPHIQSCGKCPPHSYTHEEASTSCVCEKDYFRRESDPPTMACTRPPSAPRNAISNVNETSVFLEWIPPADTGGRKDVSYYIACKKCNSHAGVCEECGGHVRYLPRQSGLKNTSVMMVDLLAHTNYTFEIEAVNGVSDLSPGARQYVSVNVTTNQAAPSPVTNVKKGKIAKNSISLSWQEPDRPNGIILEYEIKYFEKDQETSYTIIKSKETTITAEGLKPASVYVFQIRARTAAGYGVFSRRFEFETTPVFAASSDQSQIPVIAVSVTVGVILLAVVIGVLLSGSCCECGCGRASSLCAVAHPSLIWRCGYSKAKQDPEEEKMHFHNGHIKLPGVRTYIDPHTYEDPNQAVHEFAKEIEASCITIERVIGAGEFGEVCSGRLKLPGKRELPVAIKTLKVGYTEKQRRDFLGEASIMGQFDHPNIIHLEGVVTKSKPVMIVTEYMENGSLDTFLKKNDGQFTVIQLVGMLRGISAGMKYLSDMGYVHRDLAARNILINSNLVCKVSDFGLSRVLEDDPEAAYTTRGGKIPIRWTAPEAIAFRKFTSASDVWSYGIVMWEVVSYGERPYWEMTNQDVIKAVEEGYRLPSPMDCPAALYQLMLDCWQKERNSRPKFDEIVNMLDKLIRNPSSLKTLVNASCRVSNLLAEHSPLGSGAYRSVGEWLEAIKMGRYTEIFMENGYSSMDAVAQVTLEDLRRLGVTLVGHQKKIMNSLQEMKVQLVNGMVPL
Assay [8] concerns the target kinases (KINOMEscan panel) (Homo sapiens, UniProt Q9BVS4). As to conditions: RIOK2; NEW KINOMEscan.
Assay [9] concerns the target kinases (KINOMEscan panel) (Homo sapiens, UniProt Q06187). The conditions noted are these: kinase BTK; NEW KINOMEscan.
For assay [10], the target named is T2, kinases (KINOMEscan panel) (Homo sapiens, UniProt O75747).
T2 sequence (O75747 1-1486): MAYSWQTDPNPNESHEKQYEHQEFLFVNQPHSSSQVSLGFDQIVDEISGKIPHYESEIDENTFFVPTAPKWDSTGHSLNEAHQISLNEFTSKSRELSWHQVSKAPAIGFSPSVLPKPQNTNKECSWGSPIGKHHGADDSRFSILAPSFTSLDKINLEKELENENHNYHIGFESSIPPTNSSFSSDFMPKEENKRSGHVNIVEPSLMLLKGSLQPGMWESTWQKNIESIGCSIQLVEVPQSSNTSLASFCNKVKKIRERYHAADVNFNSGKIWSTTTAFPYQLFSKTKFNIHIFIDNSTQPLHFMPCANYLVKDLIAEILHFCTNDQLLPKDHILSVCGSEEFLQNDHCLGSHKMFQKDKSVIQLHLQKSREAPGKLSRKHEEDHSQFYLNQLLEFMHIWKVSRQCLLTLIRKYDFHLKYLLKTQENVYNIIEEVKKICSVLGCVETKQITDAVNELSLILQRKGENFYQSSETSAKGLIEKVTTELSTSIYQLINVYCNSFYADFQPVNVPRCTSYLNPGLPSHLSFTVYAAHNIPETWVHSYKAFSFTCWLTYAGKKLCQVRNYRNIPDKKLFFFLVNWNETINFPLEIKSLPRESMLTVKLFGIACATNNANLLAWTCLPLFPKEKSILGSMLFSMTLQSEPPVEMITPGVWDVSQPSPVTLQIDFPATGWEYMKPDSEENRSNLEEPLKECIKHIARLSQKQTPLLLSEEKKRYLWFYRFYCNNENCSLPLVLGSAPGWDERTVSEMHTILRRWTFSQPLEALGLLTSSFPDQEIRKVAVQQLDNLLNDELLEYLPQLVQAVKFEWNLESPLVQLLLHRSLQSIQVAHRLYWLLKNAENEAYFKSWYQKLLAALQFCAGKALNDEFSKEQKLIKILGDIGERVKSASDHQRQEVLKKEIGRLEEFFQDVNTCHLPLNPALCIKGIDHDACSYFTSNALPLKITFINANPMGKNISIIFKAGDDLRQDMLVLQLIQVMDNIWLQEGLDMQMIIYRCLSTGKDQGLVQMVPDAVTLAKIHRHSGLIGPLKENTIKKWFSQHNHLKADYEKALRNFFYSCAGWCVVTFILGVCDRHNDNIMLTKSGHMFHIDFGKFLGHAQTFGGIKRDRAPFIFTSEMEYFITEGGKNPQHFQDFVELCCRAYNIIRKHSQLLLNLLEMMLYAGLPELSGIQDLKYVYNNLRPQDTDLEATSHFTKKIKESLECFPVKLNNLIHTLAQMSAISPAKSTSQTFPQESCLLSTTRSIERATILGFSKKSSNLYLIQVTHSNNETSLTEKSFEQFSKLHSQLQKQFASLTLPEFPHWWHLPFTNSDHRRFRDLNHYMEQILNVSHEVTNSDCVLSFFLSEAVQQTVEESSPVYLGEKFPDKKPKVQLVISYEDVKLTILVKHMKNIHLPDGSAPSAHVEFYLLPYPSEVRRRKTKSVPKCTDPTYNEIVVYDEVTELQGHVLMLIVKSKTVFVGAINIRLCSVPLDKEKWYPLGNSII
The conditions noted are these: NEW KINOMEscan.

kinases (KINOMEscan panel) (Homo sapiens, UniProt P53778), sequence (P53778 whole entry): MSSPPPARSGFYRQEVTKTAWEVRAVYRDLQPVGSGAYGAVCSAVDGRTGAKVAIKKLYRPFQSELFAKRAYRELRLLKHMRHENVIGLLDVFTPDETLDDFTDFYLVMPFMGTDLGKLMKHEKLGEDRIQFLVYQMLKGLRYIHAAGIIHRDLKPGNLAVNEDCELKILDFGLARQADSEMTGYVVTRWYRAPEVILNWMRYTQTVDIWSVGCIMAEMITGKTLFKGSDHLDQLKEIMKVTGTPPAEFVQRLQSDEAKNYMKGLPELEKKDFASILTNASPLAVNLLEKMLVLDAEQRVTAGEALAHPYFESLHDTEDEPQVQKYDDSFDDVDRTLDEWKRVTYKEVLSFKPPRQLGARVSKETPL
kinases (KINOMEscan panel) (Homo sapiens, UniProt P78362), sequence (P78362 whole entry): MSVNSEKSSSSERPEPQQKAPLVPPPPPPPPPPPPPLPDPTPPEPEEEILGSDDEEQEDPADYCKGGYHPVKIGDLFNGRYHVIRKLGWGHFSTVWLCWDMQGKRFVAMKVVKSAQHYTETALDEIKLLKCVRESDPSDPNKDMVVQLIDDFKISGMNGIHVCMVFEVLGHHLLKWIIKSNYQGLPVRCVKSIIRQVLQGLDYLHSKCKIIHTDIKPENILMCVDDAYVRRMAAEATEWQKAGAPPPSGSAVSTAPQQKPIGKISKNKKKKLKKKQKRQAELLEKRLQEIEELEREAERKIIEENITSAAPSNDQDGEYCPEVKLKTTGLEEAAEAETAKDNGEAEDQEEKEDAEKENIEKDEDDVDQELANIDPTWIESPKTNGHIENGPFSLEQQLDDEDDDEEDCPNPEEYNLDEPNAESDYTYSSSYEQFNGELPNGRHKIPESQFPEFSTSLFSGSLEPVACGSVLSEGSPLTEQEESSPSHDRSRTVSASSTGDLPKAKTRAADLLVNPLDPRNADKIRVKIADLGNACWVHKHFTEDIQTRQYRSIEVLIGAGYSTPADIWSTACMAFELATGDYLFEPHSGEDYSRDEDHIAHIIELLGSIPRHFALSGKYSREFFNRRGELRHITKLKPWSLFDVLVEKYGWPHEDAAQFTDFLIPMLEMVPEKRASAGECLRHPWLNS
kinases (KINOMEscan panel) (Homo sapiens, UniProt Q9BVS4), sequence (Q9BVS4 whole entry): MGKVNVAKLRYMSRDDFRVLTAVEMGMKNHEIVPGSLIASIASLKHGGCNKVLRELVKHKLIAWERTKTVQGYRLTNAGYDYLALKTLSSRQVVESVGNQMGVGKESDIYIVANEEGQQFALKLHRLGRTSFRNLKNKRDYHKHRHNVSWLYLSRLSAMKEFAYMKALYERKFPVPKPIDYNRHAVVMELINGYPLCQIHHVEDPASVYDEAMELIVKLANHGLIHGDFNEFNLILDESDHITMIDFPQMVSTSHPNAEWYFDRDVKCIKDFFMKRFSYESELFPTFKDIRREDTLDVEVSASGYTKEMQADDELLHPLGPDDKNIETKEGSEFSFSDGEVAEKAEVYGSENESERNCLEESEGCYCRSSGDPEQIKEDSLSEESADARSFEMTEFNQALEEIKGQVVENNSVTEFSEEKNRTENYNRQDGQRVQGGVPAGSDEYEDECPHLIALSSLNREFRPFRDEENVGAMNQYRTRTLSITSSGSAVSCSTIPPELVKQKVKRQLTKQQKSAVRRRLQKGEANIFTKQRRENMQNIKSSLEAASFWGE
kinases (KINOMEscan panel) (Homo sapiens, UniProt Q06187), sequence (Q06187 whole entry): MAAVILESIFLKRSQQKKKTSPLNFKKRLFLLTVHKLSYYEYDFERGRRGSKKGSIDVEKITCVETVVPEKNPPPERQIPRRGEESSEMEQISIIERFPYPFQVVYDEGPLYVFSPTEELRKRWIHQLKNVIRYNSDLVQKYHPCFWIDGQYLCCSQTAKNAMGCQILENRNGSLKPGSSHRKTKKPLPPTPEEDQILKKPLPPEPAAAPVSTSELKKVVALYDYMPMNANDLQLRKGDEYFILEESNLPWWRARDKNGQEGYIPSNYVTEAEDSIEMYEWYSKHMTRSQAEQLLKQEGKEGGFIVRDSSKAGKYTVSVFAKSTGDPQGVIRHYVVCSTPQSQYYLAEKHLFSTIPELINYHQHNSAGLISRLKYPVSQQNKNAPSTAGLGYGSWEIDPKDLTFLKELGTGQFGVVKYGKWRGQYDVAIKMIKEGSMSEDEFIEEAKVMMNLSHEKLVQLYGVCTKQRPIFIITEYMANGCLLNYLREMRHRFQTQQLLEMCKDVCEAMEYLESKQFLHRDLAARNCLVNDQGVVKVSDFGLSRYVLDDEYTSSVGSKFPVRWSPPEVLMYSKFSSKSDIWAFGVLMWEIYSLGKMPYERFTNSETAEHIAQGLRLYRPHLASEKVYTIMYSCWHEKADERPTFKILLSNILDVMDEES
kinases (KINOMEscan panel) (Homo sapiens, UniProt P16234), sequence (P16234 24-1089): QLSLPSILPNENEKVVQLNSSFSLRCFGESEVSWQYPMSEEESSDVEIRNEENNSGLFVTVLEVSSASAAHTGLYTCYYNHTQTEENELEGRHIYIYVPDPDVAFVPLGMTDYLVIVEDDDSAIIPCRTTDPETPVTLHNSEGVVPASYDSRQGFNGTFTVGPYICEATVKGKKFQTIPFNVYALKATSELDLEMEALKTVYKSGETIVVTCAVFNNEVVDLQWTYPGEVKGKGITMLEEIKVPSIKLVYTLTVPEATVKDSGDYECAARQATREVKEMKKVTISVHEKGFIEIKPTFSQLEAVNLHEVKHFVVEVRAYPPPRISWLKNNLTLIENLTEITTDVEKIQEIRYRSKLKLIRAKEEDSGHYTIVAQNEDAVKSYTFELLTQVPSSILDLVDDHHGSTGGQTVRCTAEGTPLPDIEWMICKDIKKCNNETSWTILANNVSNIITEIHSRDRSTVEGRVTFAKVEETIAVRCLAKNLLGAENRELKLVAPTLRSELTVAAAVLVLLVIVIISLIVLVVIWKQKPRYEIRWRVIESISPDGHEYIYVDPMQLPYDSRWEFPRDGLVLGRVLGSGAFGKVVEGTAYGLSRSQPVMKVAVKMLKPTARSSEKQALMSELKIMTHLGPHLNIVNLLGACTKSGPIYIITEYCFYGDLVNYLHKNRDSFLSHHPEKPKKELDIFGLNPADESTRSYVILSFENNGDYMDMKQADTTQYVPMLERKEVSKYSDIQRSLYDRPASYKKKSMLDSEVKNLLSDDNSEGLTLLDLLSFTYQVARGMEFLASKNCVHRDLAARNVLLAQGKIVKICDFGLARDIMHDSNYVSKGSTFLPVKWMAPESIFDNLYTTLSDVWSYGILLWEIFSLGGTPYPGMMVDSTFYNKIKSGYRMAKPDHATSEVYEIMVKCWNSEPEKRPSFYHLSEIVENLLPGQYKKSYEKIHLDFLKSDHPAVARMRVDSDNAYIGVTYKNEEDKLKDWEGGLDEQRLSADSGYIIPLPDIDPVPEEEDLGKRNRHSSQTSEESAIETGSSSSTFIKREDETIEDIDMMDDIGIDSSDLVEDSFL
kinases (KINOMEscan panel) (Homo sapiens, UniProt Q96Q40), sequence (Q96Q40 whole entry): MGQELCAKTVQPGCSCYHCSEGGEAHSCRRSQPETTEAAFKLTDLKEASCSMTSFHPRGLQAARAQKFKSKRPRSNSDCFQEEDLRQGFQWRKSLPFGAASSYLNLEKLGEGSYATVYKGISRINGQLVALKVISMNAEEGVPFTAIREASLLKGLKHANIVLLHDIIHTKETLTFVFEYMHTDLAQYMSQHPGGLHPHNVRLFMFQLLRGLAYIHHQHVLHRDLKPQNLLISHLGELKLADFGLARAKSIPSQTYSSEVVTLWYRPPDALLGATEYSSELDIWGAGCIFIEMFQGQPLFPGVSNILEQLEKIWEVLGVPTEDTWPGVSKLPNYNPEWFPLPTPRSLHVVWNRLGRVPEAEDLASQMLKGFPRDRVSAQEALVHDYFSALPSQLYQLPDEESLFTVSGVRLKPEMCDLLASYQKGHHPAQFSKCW

As to `Cc1cccc(-c2nc(N(C)c3ccc4ncsc4c3)c3ccccc3n2)n1` [NK-161], in assay [1], the “KINOMEscan MAPK12/p38-gamma” value turned out to be 27. Also, the “KINOMEscan NEK2” value in [2] stood at 1. In addition, the “KINOMEscan PDGFRA” value in assay [3] came out at 0. For the same molecule, the “KINOMEscan SRPK2” value in assay [4] came to 0. Also, in assay [5], the “KINOMEscan CDK15/PFTAIRE2” value amounted to 0. Besides, in assay [6], the “KINOMEscan WNK4” value was 0. Moreover, in [7], the “KINOMEscan EPHA5” value was found to be 9. Further, the “KINOMEscan RIOK2” value in [8] amounted to 3. In assay [9], the “KINOMEscan BTK” value is 10. Besides, the “KINOMEscan PIK3C2G” value in assay [10] is 0.
Turning to `Cc1cccc(-c2nc(Nc3ccc4nn(C)cc4c3)c3ccccc3n2)n1` [NK167], the “KINOMEscan MAPK12/p38-gamma” value in assay [1] is reported as 43. Further, the “KINOMEscan NEK2” value in assay [2] is given as 0. Also, the “KINOMEscan PDGFRA” value in [3] is on record as 0. In addition, the “KINOMEscan SRPK2” value in assay [4] was 0. In assay [5], the “KINOMEscan CDK15/PFTAIRE2” value is reported as 0. In addition, in [6], the “KINOMEscan WNK4” value was determined as 0. Moreover, in [7], the “KINOMEscan EPHA5” value is reported as 0. The “KINOMEscan RIOK2” value in assay [8] was 3. Further, the “KINOMEscan BTK” value in assay [9] is reported as 0. The “KINOMEscan PIK3C2G” value in [10] was found to be 0.

Values taken from paper PMC9851200, “Multiparameter phenotypic screening for endogenous TFEB and TFE3 translocation identifies novel chemical series modulating lysosome function” (Autophagy, 2022).
